{"source": "patent US4311694A", "about": "“Amorphous coprecipitates of 4-(monoalkylamino) benzoic acid and derivatives and certain water-soluble materials” (priority 1979, dated 1982)", "key": {"physchem": {"assay": "physchem", "format": "physicochemical", "conditions": "water, drug alone, read-out: soluble in water"}, "[1]": {"assay": "Comparative water solubility of precipitates (Example 4)", "format": "physicochemical", "conditions": "1 mg./ml. of drug"}}}
{"smiles": "CCCCCCCCCCCCCCCCNc1ccc(C(=O)[O-])cc1.[Na+]", "values": [{"measurement": "solubility", "setting": "physchem", "result": 1, "unit": "µg/mL"}, {"measurement": "% p-Hexadecylaminobenzoic acid Sodium Salt in Solution, After 1 minute", "setting": "[1]; 1 minute", "result": 4, "unit": "%"}, {"measurement": "% p-Hexadecylaminobenzoic acid Sodium Salt in Solution, After 30 minutes", "setting": "[1]; 30 minutes", "result": 2, "unit": "%"}]}
